Experimental data as given in patent publication US10945435B2, “Imidazopyrimidine derivatives with sulfur containing phenyl and pyridyl substituents” (SYNGENTA PARTICIPATIONS AG, priority 2017, dated 2021).

Key:
Format in all cases: in vivo
[1] = tested on: Diabrotica balteata (Corn Root Worm); assay: Example B2 Diabrotica balteata mortality and growth inhibition; conditions: 96 h, application rate of 200 ppm, L2 larvae on sprayed maize sprouts, 4 days after infestation, read-out: effect in at least one of the two categories (mortality or growth inhibition)
Method: Diabrotica balteata (Corn Root Worm)
(§1) Maize sprouts placed onto an agar layer in 24-well microtiter plates were treated with aqueous test solutions prepared from 10,000 ppm DMSO stock solutions by spraying. After drying, the plates were infested with L2 larvae (6 to 10 per well). The samples were assessed for mortality and growth inhibition in comparison to untreated samples 4 days after infestation.

[2] = tested on: Plutella xylostella (Diamond Back Moth); assay: Example B13 Plutella xylostella mortality and growth inhibition; conditions: 120 h, application rate of 200 ppm, L2 larvae on treated artificial diet, 5 days after infestation, read-out: effect in at least one of the two categories (mortality or growth inhibition)
Method: Plutella xylostella (Diamond Back Moth)
(§2) 24-well microtiter plates with artificial diet were treated with aqueous test solutions prepared from 10,000 ppm DMSO stock solutions by pipetting. After drying, the plates were infested with L2 larvae (10 to 15 per well). The samples were assessed for mortality and growth inhibition in comparison to untreated samples 5 days after infestation.

[3] = tested on: Bemisia tabaci (Cotton White Fly); assay: Example B1 Bemisia tabaci feeding/contact activity; conditions: foliar, 144 h, application rate of 200 ppm, adult white flies on sprayed cotton leaf discs, 6 days after incubation
Method: Bemisia tabaci (Cotton White Fly): Feeding/Contact Activity
Cotton leaf discs were placed on agar in 24-well microtiter plates and sprayed with aqueous test solutions prepared from 10,000 ppm DMSO stock solutions. After drying the leaf discs were infested with adult white flies. The samples were checked for mortality 6 days after incubation.

[4] = tested on: Euschistus heros (Neotropical Brown Stink Bug); assay: Example B5 Euschistus heros mortality and growth inhibition; conditions: 120 h, application rate of 200 ppm, N2 nymphs on sprayed soybean leaves, 5 days after infestation, read-out: effect in at least one of the two categories (mortality or growth inhibition)
Method: Euschistus heros (Neotropical Brown Stink Bug)
Soybean leaves on agar in 24-well microtiter plates were sprayed with aqueous test solutions prepared from 10,000 ppm DMSO stock solutions. After drying the leaves were infested with N2 nymphs. The samples were assessed for mortality and growth inhibition in comparison to untreated samples 5 days after infestation.

[5] = tested on: Plutella xylostella (Diamond Back Moth); assay: Example B11 Plutella xylostella growth inhibition activity; conditions: 120 h, application rate of 200 ppm, L2 larvae on treated artificial diet, 5 days after infestation
Method: Plutella xylostella (Diamond Back Moth): Growth Inhibition Activity
as §2, with “for” for “for mortality and”, “infestation. Control of Plutella xylostella by a test sample is given when the growth inhibition is higher than the untreated sample.” for “infestation.”

[6] = tested on: Euschistus heros (Neotropical Brown Stink Bug); assay: Example B7 Euschistus heros feeding/contact activity; conditions: 120 h, application rate of 200 ppm, N2 nymphs on sprayed soybean leaves, 5 days after infestation
Method: Euschistus heros (Neotropical Brown Stink Bug): Feeding/Contact Activity
Soybean leaves on agar in 24-well microtiter plates were sprayed with aqueous test solutions prepared from 10,000 ppm DMSO stock solutions. After drying the leaves were infested with N2 nymphs. The samples were assessed for mortality 5 days after infestation.

[7] = tested on: Diabrotica balteata (Corn Root Worm); assay: Example B4 Diabrotica balteata mortality; conditions: 96 h, application rate of 200 ppm, L2 larvae on sprayed maize sprouts, 4 days after infestation
Method: Diabrotica Balteata (Corn Root Worm):
as §1, with “mortality” for “mortality and growth inhibition in comparison to untreated samples”

[8] = tested on: Plutella xylostella (Diamond Back Moth); assay: Example B12 Plutella xylostella feeding/contact activity; conditions: 120 h, application rate of 200 ppm, L2 larvae on treated artificial diet, 5 days after infestation
Method: Plutella xylostella (Diamond Back Moth): Feeding/Contact Activity
24-well microtiter plates with artificial diet were treated with aqueous test solutions prepared from 10,000 ppm DMSO stock solutions by pipetting. After drying, the plates were infested with L2 larvae (10 to 15 per well). The samples were assessed for mortality 5 days after infestation.

[9] = tested on: Spodoptera littoralis (Egyptian Cotton Leaf Worm); assay: Example B14 Spodoptera littoralis anti-feeding activity; conditions: foliar, 72 h, application rate of 200 ppm, L1 larvae on sprayed cotton leaf discs, 3 days after infestation, read-out: control (anti-feeding effect)
Method: Spodoptera littoralis (Egyptian Cotton Leaf Worm): Anti-Feeding Activity
Cotton leaf discs were placed onto agar in 24-well microtiter plates and sprayed with aqueous test solutions prepared from 10,000 ppm DMSO stock solutions. After drying the leaf discs were infested with five L1 larvae. The samples were assessed for anti-feeding effect in comparison to untreated samples 3 days after infestation. Control of Spodoptera littoralis by a test sample is given when the anti-feedant effect is higher than the untreated sample.

[10] = tested on: Myzus persicae (Green Peach Aphid); assay: Example B9 Myzus persicae feeding/contact activity; conditions: foliar, 144 h, application rate of 200 ppm, mixed-age aphids on sprayed sunflower leaf discs, 6 days after infestation
Method: Myzus persicae (Green Peach Aphid): Feeding/Contact Activity
Sunflower leaf discs were placed onto agar in a 24-well microtiter plate and sprayed with aqueous test solutions prepared from 10,000 ppm DMSO stock solutions. After drying, the leaf discs were infested with an aphid population of mixed ages. The samples were assessed for mortality 6 days after infestation.

[11] = tested on: Spodoptera littoralis (Egyptian Cotton Leaf Worm); assay: Example B16 Spodoptera littoralis feeding/contact activity; conditions: foliar, 72 h, application rate of 200 ppm, L1 larvae on sprayed cotton leaf discs, 3 days after infestation
Method: Spodoptera littoralis (Egyptian Cotton Leaf Worm): Feeding/Contact Activity
Cotton leaf discs were placed onto agar in 24-well microtiter plates and sprayed with aqueous test solutions prepared from 10,000 ppm DMSO stock solutions. After drying the leaf discs were infested with five L1 larvae. The samples were assessed for mortality 3 days after infestation.

[12] = tested on: Frankliniella occidentalis (Western Flower Thrips); assay: Example B8 Frankliniella occidentalis feeding/contact activity; conditions: foliar, 168 h, application rate of 200 ppm, mixed-age population on sprayed sunflower leaf discs, 7 days after infestation
Method: Frankliniella occidentalis (Western Flower Thrips): Feeding/Contact Activity
Sunflower leaf discs were placed on agar in 24-well microtiter plates and sprayed with aqueous test solutions prepared from 10,000 DMSO stock solutions. After drying the leaf discs were infested with a Frankliniella population of mixed ages. The samples were assessed for mortality 7 days after infestation.

[13] = tested on: Myzus persicae (Green Peach Aphid); assay: Example B10 Myzus persicae systemic activity; conditions: 144 h, test rate of 24 ppm, roots of infested pea seedlings in test solution, 6 days
Method: Myzus persicae (Green Peach Aphid). Systemic Activity
Roots of pea seedlings infested with an aphid population of mixed ages were placed directly into aqueous test solutions prepared from 10,000 DMSO stock solutions. The samples were assessed for mortality 6 days after placing seedlings into test solutions.

CCS(=O)(=O)c1cc(OC(F)F)cnc1-c1cn2cnc(C(F)(F)F)cc2n1 [Compound P21, 2-[5-(difluoromethoxy)-3-ethylsulfonyl-2-pyridyl]-7-(trifluoromethyl)imidazo[1,2-c]pyrimidine]
≥ 80%: percent effect (mortality or growth inhibition) at 200 ppm [1] | percent effect (mortality or growth inhibition) at 200 ppm [2] | mortality at 200 ppm [3] | percent effect (mortality or growth inhibition) at 200 ppm [4] | inhibition at 200 ppm [5] | mortality at 200 ppm [6] | mortality at 200 ppm [7] | mortality at 200 ppm [8] | pest or weed control at 200 ppm [9] | mortality at 200 ppm [10] | mortality at 200 ppm [11]

CCS(=O)(=O)c1cc(OC(C)(C)C#N)cnc1-c1cn2cnc(C(F)(F)F)cc2n1 [Compound P13, 2-[[5-ethylsulfonyl-6-[7-(trifluoromethyl)imidazo[1,2-c]pyrimidin-2-yl]-3-pyridyl]oxy]-2-methyl-propanenitrile]
≥ 80%: percent effect (mortality or growth inhibition) at 200 ppm [1] | percent effect (mortality or growth inhibition) at 200 ppm [2] | mortality at 200 ppm [3] | mortality at 200 ppm [12] | percent effect (mortality or growth inhibition) at 200 ppm [4] | inhibition at 200 ppm [5] | mortality at 200 ppm [6] | mortality at 200 ppm [7] | mortality at 200 ppm [8] | pest or weed control at 200 ppm [9] | mortality at 200 ppm [10] | mortality at 200 ppm [11]

CCS(=O)(=O)c1cc(OCS(C)(=O)=O)cnc1-c1cn2cnc(C(F)(F)F)cc2n1 [Compound P23, 2-[3-ethylsulfonyl-5-(methylsulfonylmethoxy)-2-pyridyl]-7-(trifluoromethyl)imidazo[1,2-c]pyrimidine]
≥ 80%: mortality at 24 ppm [13] | percent effect (mortality or growth inhibition) at 200 ppm [4] | mortality at 200 ppm [6] | mortality at 200 ppm [10]

CCS(=O)(=O)c1cc(OCCSC)cnc1-c1cn2cnc(C(F)(F)F)cc2n1 [Compound P15, 2-[3-ethylsulfonyl-5-(2-methylsulfanylethoxy)-2-pyridyl]-7-(trifluoromethyl)imidazo[1,2-c]pyrimidine]
≥ 80%: mortality at 24 ppm [13] | mortality at 200 ppm [3] | percent effect (mortality or growth inhibition) at 200 ppm [4] | mortality at 200 ppm [6] | mortality at 200 ppm [10]

CCS(=O)(=O)c1cc(OCC(F)F)cnc1-c1cn2cnc([S+]([O-])C(F)(F)F)cc2n1 (stereo not drawn) [Compound P3, 2-[5-(2,2-difluoroethoxy)-3-ethylsulfonyl-2-pyridyl]-7-(trifluoromethylsulfinyl)imidazo[1,2-c]pyrimidine]
≥ 80%: percent effect (mortality or growth inhibition) at 200 ppm [1] | percent effect (mortality or growth inhibition) at 200 ppm [2] | percent effect (mortality or growth inhibition) at 200 ppm [4] | inhibition at 200 ppm [5] | mortality at 200 ppm [6] | mortality at 200 ppm [7] | mortality at 200 ppm [10]

CCS(=O)(=O)c1cc(OC(C)C)cnc1-c1cn2cnc(SC(F)(F)F)cc2n1 [Compound P2, 2-(3-ethylsulfonyl-5-isopropoxy-2-pyridyl)-7-(trifluoromethylsulfanyl)imidazo[1,2-c]pyrimidine]
≥ 80%: percent effect (mortality or growth inhibition) at 200 ppm [1] | percent effect (mortality or growth inhibition) at 200 ppm [2] | percent effect (mortality or growth inhibition) at 200 ppm [4] | inhibition at 200 ppm [5] | mortality at 200 ppm [6] | mortality at 200 ppm [7] | mortality at 200 ppm [8] | pest or weed control at 200 ppm [9] | mortality at 200 ppm [11]

CCS(=O)(=O)c1cc(OCC(F)(F)F)cnc1-c1cn2cnc(C(F)(F)F)cc2n1 [Compound P6, 2-[3-ethylsulfonyl-5-(2,2,2-trifluoroethoxy)-2-pyridyl]-7-(trifluoromethyl)imidazo[1,2-c]pyrimidine]
≥ 80%: percent effect (mortality or growth inhibition) at 200 ppm [1] | mortality at 24 ppm [13] | percent effect (mortality or growth inhibition) at 200 ppm [2] | mortality at 200 ppm [3] | percent effect (mortality or growth inhibition) at 200 ppm [4] | inhibition at 200 ppm [5] | mortality at 200 ppm [6] | mortality at 200 ppm [7] | mortality at 200 ppm [8] | pest or weed control at 200 ppm [9] | mortality at 200 ppm [10] | mortality at 200 ppm [11]

CCS(=O)(=O)c1cc(OCC(F)(F)F)cnc1-c1cn2cnc(SC(F)(F)F)cc2n1 [Compound P1, 2-[3-ethylsulfonyl-5-(2,2,2-trifluoroethoxy)-2-pyridyl]-7-(trifluoromethylsulfanyl)imidazo[1,2-c]pyrimidine]
≥ 80%: percent effect (mortality or growth inhibition) at 200 ppm [1] | percent effect (mortality or growth inhibition) at 200 ppm [2] | mortality at 200 ppm [3] | percent effect (mortality or growth inhibition) at 200 ppm [4] | inhibition at 200 ppm [5] | mortality at 200 ppm [6] | mortality at 200 ppm [7] | mortality at 200 ppm [8] | pest or weed control at 200 ppm [9] | mortality at 200 ppm [10] | mortality at 200 ppm [11]

CCS(=O)(=O)c1cc(OC(C)C)cnc1-c1cn2cnc(C(F)(F)F)cc2n1 [Compound P7, 2-(3-ethylsulfonyl-5-isopropoxy-2-pyridyl)-7-(trifluoromethyl)imidazo[1,2-c]pyrimidine]
≥ 80%: percent effect (mortality or growth inhibition) at 200 ppm [1] | percent effect (mortality or growth inhibition) at 200 ppm [2] | percent effect (mortality or growth inhibition) at 200 ppm [4] | inhibition at 200 ppm [5] | mortality at 200 ppm [6] | mortality at 200 ppm [7] | mortality at 200 ppm [8] | pest or weed control at 200 ppm [9] | mortality at 200 ppm [10] | mortality at 200 ppm [11]
